Patent US20080096770A1, “Evaluation of the Toxicity of Pharmaceutical Agents” (priority 2004, published 2008)
Read-outs that look alike come from different tables or passages of the source.

Tests used:
Assay type in all cases: cell-based
[1] = tested on: TK6 human lymphoblastoid cells; conditions: for Cell Density (±S.D.): 24 h treatment at the optimized cytotoxic concentration (Table 1), aim 40-60% viability decrease; for EC50: 24 h dilution series, determined by cell density and the Alamar Blue assay, read-out: approximated EC50 (cytotoxic concentration for 50% cell death; equicytotoxic concentration)
Procedure: (§1) The human lymphoblastoid cell line TK6 (ATCC, Manassas, Va.) was cultured in RPMI 1640 medium (with Glutamax and 10% FHS) at a cell density of 0.2×10^5 to 10×10^5 cells/ml. Cells were routinely subcultured starting from frozen aliquots after […]. For experiments, passage numbers between 3 to 15 were used.
(§2) Cytotoxic concentrations were determined either by measuring cell density on a Sysmex Cell Counter (Sysmex America, Inc., Mundelein, Ill.) or by metabolic cell activity using the Alamar Blue (Serotec Inc., Raleigh, N.C.) cytotoxicity assay. Alamar Blue indicator dye quantitatively measures proliferation in human and other cells. Alamar Blue is a sensitive fluorimetric and calorimetric reagent sensitive to the redox state of the growth medium. Cell density by Sysmex was measured after the 24 h treatment. Cytotoxicity by Alamar Blue was measured 3 hours prior to end of treatment, i.e., at 21 hours. 200 III of cell suspension were mixed with 20 μl of Alamar Blue reagent in a 96-well plate and measured once/hour using a fluorescence plate reader with 544 nm excitation and 612 nm emission filters. Cell suspension samples from the cytotoxicity dilution series were analyzed for cytometry endpoints by Laser Scanning Cytometry.
(§3) TK6 human lymphoblastoid cells were exposed to following treatments (24 hours, 0.15×10^6 cells/ml):
Dose-response determination to provide the doses given in column 4 of Table 1 was carried out with an initial cell density of 0.15×10^6 cells/ml (see Example 1).
(§4) The six model compounds identified in Table 1 were applied in a dilution series to TK6 cells. The resulting dilution series for each of the six compounds provided individually optimized cytotoxic concentrations for 50% cell death (EC50) as determined by cell density and the Alamar Blue assay. It is possible that cell density and the Alamar Blue assay may not give identical cytotoxicity profiles. Thus, concentrations of the compounds were optimized with the objective to have both cytotoxicity parameters within the range of 40-60% viability decrease. In addition, for representative dilution series several cytometry endpoints were analyzed (BrdU incorporation, KI-67 staining (Histogenex, Edegem, Belgium), propidium iodide staining), although these parameters were not used for concentration selection.

[2] = tested on: TK6 human lymphoblastoid cells; assay: Microarray gene expression profiling with PLS-DA / KNN discrimination of cytotoxic versus genotoxic compounds (Examples 1-7); conditions: 24 h
Procedure: Total RNA was isolated after 24 hours of treatment with the agents or control using Qiagen's (Hilden, Germany) RNeasy Mini Kits. Samples were made up of 10 ml TK6 cell suspensions with an approximate cell density of 0.3×10^6 cells/ml. Column-purified RNA was eluted with 40 μl water and quality-checked by UV spectrometry and Agilent's “lab-on-a-chip” technology (RNA nano chip, Bioanalyzer 2100, Agilent Technologies, Santa Clara, Calif.). RNA extraction and purification is described by the manufacturer of the GeneChip system.
Purified total human TK6 RNA was analyzed using the human specific Human Genome U133, 2.0 array (Affymetrix). […] Sequences used in the design of the array were selected from GenBank®, dbEST, and RefSeq.
The resulting primary raw data, the image files (.dat files), were processed using the Microarray Analysis Suite 5 (MAS5) software (Affymetrix). Tab-delimited files were obtained containing data regarding signal intensity (Signal) and categorical expression level measurement (Absolute Call).
The raw data obtained from the GeneChip by MAS5 were imported to GeneSpring 7.2 for analysis. Data were normalized per chip and per gene to the respective median. Genes were annotated according to LocusLink nomenclature (http://www.ncbi.nlm.nih.gov/LocusLink/).
Filtering of the data was performed according to following criteria for each gene:
Fold-change refers to the ratio of genotoxic versus cytotoxic. Since these studies seek robust predictor genes the limit ratios (1.4 and 0.7) were selected in order to excluded genes that show consistent but only small differences. […]
PLS-DA was applied iteratively to the gene expression data with cyto- and genotcoxicity as class variables. […] The final model was validated by response permutation; i.e. the class membership of each sample was randomly attributed, evaluated by the model and contrasted to the solution of the model with the original class membership. […]

[3] = tested on: TK6 human lymphoblastoid cells; assay: Alamar Blue cytotoxicity assay (metabolic cell activity); conditions: measured at 21 hours, at the optimized cytotoxic concentration (Table 1), aim 40-60% viability decrease
Procedure: as §1, §2, §3, §4

[4] = tested on: TK6 human lymphoblastoid cells; conditions: dilution series up to or around the EC50 values (FIG. 1)
Procedure: FIG. 1. Graphical representation of the percentage of cells in G2 phase as a function of dilution of the indicated genotoxic and nongenotoxic compounds (points 1-9), with control samples at points 10-12. An original color image has been converted to grayscale by computer.
as §2
The six model compounds identified in Table 1 were applied in a dilution series to TK6 cells. […]

[5] = TK6 cells, equicytotoxic concentrations, cytotoxic samples above or at 0, genotoxic samples below 0

Row | SMILES | Cell Density (±S.D.) [1] [%] | scores of first component t[1] of PLS-DA with all 215 genes (FIG. 4) ([2]; human) | Alamar Blue (±S.D.) [3] [%] | EC50 ([1]; listed as tPt) [µM] | shifts in cell cycle parameters / G2 phase block [4] | scores of first component t[1] of PLS-DA with all 215 genes (FIG. 4) [2, 5] | EC50 [1] [µM]
1 | COS(C)(=O)=O [Methyl methanesulfonate] | 44 ± 2 | below t[1]=0 | 43 ± 8 | – | – | – | –
2 | CO[C@@]12[C@H](COC(N)=O)C3=C(C(=O)C(C)=C(N)C3=O)N1C[C@@H]1N[C@@H]12 [Mitomycin C] | 53 ± 3 | – | 48 ± 1 | – | – | – | –
3 | N.N.[Cl][Pt][Cl] [trans-Platinum, trans-diammineplatinum(II) dichloride] | 58 ± 7 | – | 36 ± 13 | 33 | – | – | –
4 | CO[C@H]1/C=C/O[C@@]2(C)Oc3c(C)c(O)c4c(O)c(c(/C=N/N5CCN(C)CC5)c(O)c4c3C2=O)NC(=O)/C(C)=C\C=C\[C@H](C)[C@H](O)[C@@H](C)[C@@H](O)[C@@H](C)[C@H](OC(C)=O)[C@@H]1C [Rifampicin] | 52 ± 9 | – | 61 ± 8 | – | no significant shifts in cell cycle parameters | above or at t[1]=0 | –
5 | N.N.[Cl][Pt][Cl] [cis-Platinum, cis-diammineplatinum(II) dichloride] | 53 ± 4 | – | 46 ± 5 | – | – | – | 1.3
6 | [Cl-].[Na+] [NaCl] | 30 ± 4 | – | 65 ± 5 | – | no significant shifts in cell cycle parameters | above or at t[1]=0 | –
